# In ChEMBL document CHEMBL2021825, “Dimerization of β-tryptase inhibitors, does it work for both basic and neutral P1 groups?” (Bioorg Med Chem Lett, 2012):
# The source made the active and inactive calls. No cut-off for these calls is given here.
# Tests used:
# [1] = Inhibition of human recombinant beta-tryptase using chromogenic substrate S-2366
# Homo sapiens = organism: Homo sapiens; assay: Inhibition of human recombinant beta-tryptase using chromogenic substrate S-2366 at 30 uM
# [2] = tested on: Tryptase beta-1 (Homo sapiens), Q15661 [A190S]; assay: Inhibition of human recombinant beta-tryptase A190S mutant using chromogenic substrate S-2366
# Chain of Tryptase beta-1 (Homo sapiens), Q15661 [A190S] (Q15661 whole entry A190S): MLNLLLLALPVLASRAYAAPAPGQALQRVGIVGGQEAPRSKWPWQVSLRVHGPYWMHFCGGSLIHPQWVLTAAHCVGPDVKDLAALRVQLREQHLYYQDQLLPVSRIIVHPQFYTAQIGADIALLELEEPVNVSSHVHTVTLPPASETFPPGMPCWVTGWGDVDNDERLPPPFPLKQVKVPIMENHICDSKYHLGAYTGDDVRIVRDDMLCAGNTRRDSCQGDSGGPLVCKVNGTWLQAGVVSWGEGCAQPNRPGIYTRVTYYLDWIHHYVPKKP
Compound,Ki [1],further results
O=C1CN(Cc2cc(-c3ccc(Cl)s3)on2)CCN1CCCCCCCCCCN1CCN(Cc2cc(-c3ccc(Cl)s3)on2)CC1=O,–,inhibition (Homo sapiens): inactive
NCc1cccc(C2CCN(C(=O)c3ccccc3)CC2)c1,1900 nM,–
Nc1ncnc2cc(CN3CCN(Cc4cc(-c5ccc(Cl)s5)on4)CC3=O)ccc12,–,inhibition [2]: inactive
NCc1cccc(C2CCN(C(=O)c3cccc(-c4ccc5c(c4)NC(c4c[nH]c6cc(-c7cccc(C(=O)N8CCC(c9cccc(CN)c9)CC8)c7)ccc46)C5)c3)CC2)c1 (stereo not drawn),3 nM,–

# The remaining compounds from weak to strong by Ki [1], led by results:
Ki [1],Compound,further results
2 nM,NCc1cccc(C2CCN(C(=O)c3cccc(CCCCc4cccc(C(=O)N5CCC(c6cccc(CN)c6)CC5)c4)c3)CC2)c1,–
0.34 nM,NCc1cccc(C2CCN(C(=O)c3cccc(C#CC#Cc4cccc(C(=O)N5CCC(c6cccc(CN)c6)CC5)c4)c3)CC2)c1,–
0.3 nM,N=C(N)c1cccc(C2CCN(C(=O)c3cccc(CCCCc4cccc(C(=O)N5CCC(c6cccc(C(=N)N)c6)CC5)c4)c3)CC2)c1,–
0.29 nM,N=C(N)c1cccc(C2CCN(C(=O)c3cccc(C#CC#Cc4cccc(C(=O)N5CCC(c6cccc(C(=N)N)c6)CC5)c4)c3)CC2)c1,–
